Tested on: GAL4 DBD-HDAC9 fusions
Details: 293T cells, GAL4-TK-Luc reporter; HDAC9, HDAC9ΔCD and HDAC9CD fusions
Procedure: GAL4-Tk-Luc was transiently transfected into 293T cells together with 100 ng GAL4 DBD fusions. All Results were performed in duplicate […].
It has been previously established that HDACs repress transcription when tethered to DNA as Gal4 fusion proteins. […] A GAL4^uasx5-TK-Luciferase reporter gene was transiently transfected into 293T cells together with the expression vectors for the indicated GAL4 fusion proteins.

Trichostatin A
effect on the repressive effects of GAL4 DBD-HDAC9 fusions (reporter activity): partially relieved

Reference: patent publication US7291492B2, “Histone deacetylase 9” (The Institute of Cancer Research, priority 2001, dated 2007)
